# Source: patent US20080064726A1, “Pyrrolidine Derivatives” (priority 2004, published 2008)
# Where two headings read alike, the source gives them in different places.
# Tests used:
# [1] = PK test in rats; type: in vivo; details: for BA, compound measured = compound tested / AUC(0-inf): male SD rats; for BA, compound measured = compound tested: oral 3 mg/kg vs intravenous 1 mg/kg; for AUC(0-inf): rat, oral 3 mg/kg, plasma, read-out: AUC0→∞, compound measured = compound tested
# Method: Each three animals were used for each point. Plasma was collected from the blood obtained by such a blood collection and concentration of the compound in plasma was measured using LC/MS/MS (2695, Waters and TSQ Quantum, ThermoFinnigan).
# On the basis of concentration of the compound in the plasma determined by the measurement, an area under curve (AUC) of the drug concentration in plasma vs. time was calculated and, from the ratio of AUC by oral administration to AUC by intravenous injection, bioavailability (BA) was calculated. With regard to the BA value by administration of the compound of the present invention, each of concentrations in plasma of the compound X and the compound of the present invention was calculated.
# [2] = target: T1, DPP-IV purified from pig kidney (Sus scrofa, UniProt P22411); assay: Test for determination of DPP-IV inhibitory activity (Gly-Pro-AMC fluorescence); type: biochemical; details: room temperature, 60 minutes, 0.05 mM Gly-Pro-AMC
# T1 construct: DPP-rIV purified from pig kidney (Sigma); purchased Sigma; host or cells: pig kidney tissue
# Method: Procedure of DPP-IV activity measurement is as follows. The reaction was performed in a 96-well plate.
# Reaction solutions (100 μl/well) obtained by adding a test substance at various concentrations to a solution containing 50 mM of Tris HCl, 150 mM of sodium chloride, a 0.1% triton X-100, 0.3 mU/mI of DPP-rIV purified from pig kidney (Sigma), and 0.05 mM of Gly-Pro-AMC (Bachem) were incubated at a room temperature for 60 minutes, and then fluorescence intensities (Excitation: 355 nm, Emission: 460 nm) of the reaction solutions were measured (ARVO, Perkin Elmer). The data of 3 Wells under the same conditions were averaged.
# The inhibition in the test group, relative to the solvent-added group was calculated, and the IC50 value thereof was obtained through logistic analysis.
# [3] = PK test in cynomolgus monkey; type: in vivo; details: male cynomolgus monkeys; for BA, compound measured = compound tested: oral 3 mg/kg vs intravenous 1 mg/kg, monohydrochloride
# Method: Male cynomolgus monkeys of four year old (K. K. Cary; the country of origin: Vietnam) were fasted for 16 hours before administration (feed was given after 4 hours from administration), a test compound dissolved in distilled water was orally administered at a dose of 3 mg/kg and blood was collected from forearm cephalic vein after 0.25, 0.5, 1, 2, 4, 8 and 24 hours from administration of the compound. In addition, cynomolgus monkeys to which no drug was administered for 7 days after the oral administration were fasted during 16 hours before administration (feed was given after 4 hours from administration), a test compound dissolved in distilled water was administered at the dose of 1 mg/kg from forearm cephalic vein and blood was collected from the forearm cephalic vein after 0.1, 0.25, 0.5, 1, 2, 4, 8 and 24 hours from administration of the compound. For each of the administrations, three animals were used. Plasma was collected by centrifugal separation of the blood obtained by such a blood collection and concentration of the compound in the plasma was measured by LC/MS/MS (2695, Waters and TSQ Quantum, ThermoFinnigan).
# [4] = target: T2, plasma DPP-IV activity (Mus musculus, UniProt P28843); assay: Test for DPP-IV inhibiting activity duration in mice (plasma DPP-IV activity after oral administration); type: in vivo; details: male ICR mice, 10 mg/kg oral
# T2 construct: from tissue; host or cells: plasma of male ICR mice after oral dosing
# Method: Male ICR mice (Nippon SLC) were grouped into a test group and a control group of 5 subjects each. A test compound (10 mg/kg) was dissolved in purified water, and orally administered. Purified water alone was orally administered to the mice of the control group. One half and 12 hours after the administration, the blood was collected from each mouse through the orbital venous plexus thereof. The collected blood was immediately centrifuged to isolate the plasma, and the DPP-IV activity of the plasma was measured.
# The process of plasma DPP-IV activity determination was as follows: The reaction was performed in a 96-well plate. 5 μl of the collected plasma was added to an aqueous solution (95 μl/well) comprises 25 mM Tris-HCl, 140 mM sodium chloride, 10 mM potassium-chloride, 1% bovine serum albumin, and 0.01 mM Gly-Pro-AMC (Bachem), and incubated at room temperature for 20 minutes. The fluorescence intensity (excitation 355 nm/emission 460 nm) of each well was measured (ARVO, Perkin Elmer).
# The fluorescent intensity of the well, to which was added the plasma collected from the control group, was 100%. Based on it, the DPP-IV activity of the plasma collected from the test compound administered mice was calculated, and the activity difference between the control group and the test group was obtained. This indicated the inhibition in the test group.
# [5] = 0.5 hour, read-out: Inhibitory Rate after 0.5 Hour from Administration
# [6] = 12 hours, read-out: Inhibitory Rate after 12 Hours from Administration
# T2 sequence (P28843 38-760 limits assumed): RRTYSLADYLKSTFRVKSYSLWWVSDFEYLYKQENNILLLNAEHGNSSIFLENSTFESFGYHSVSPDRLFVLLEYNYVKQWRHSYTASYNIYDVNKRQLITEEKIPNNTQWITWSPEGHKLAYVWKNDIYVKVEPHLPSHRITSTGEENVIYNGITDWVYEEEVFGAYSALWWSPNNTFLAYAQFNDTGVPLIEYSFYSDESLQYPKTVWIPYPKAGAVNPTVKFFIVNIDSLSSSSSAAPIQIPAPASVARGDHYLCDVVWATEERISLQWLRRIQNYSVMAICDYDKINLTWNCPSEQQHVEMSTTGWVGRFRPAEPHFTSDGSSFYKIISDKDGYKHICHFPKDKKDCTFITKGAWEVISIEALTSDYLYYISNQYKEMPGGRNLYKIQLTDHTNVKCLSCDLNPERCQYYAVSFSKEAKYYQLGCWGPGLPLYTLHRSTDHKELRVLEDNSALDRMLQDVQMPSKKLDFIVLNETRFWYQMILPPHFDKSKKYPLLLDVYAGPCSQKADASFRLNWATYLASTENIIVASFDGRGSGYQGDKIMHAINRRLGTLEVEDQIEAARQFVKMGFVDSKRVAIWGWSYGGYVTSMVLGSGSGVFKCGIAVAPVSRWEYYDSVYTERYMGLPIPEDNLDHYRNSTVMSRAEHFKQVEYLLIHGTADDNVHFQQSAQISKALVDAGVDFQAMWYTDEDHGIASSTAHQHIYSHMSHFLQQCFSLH
# T1 sequence (P22411 whole entry): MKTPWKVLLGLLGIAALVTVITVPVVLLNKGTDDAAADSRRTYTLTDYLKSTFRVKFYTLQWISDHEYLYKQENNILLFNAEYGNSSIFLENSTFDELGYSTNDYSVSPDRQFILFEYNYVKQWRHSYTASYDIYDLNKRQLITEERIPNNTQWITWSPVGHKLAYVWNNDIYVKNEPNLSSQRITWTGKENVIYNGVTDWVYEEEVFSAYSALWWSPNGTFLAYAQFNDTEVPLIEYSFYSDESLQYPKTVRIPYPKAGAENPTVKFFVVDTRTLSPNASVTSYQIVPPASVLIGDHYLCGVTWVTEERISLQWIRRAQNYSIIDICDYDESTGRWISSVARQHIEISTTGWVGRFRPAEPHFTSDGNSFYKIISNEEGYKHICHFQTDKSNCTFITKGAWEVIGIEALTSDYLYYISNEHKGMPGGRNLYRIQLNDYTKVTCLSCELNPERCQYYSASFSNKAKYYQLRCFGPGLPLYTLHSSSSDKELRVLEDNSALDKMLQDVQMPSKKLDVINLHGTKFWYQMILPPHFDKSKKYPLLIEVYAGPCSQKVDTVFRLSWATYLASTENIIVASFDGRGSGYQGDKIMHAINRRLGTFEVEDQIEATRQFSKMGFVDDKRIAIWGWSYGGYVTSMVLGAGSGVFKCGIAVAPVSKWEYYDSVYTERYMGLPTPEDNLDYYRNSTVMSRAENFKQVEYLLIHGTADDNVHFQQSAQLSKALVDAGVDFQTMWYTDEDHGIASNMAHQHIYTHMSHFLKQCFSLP
"BA, compound measured = compound tested [1]",AUC(0-inf) [1],IC50 [2],"AUC(0-inf) ([3]; cynomolgus monkey, oral 3 mg/kg, plasma, read-out: AUC0→∞, compound measured = compound tested)","BA, compound measured = compound tested ([3]; listed as compound X)","BA, compound measured = compound tested [3]","inhibition at 10 mg/kg [4, 5]","inhibition at 10 mg/kg [4, 6]","Increase of AUC (sum of tested compound and compound X in plasma) compared with AUC when compound X was administered ([1]; rats, oral administration)","AUC0→∞, compound measured = compound tested ([3]; oral 3 mg/kg, plasma)",SMILES
16%,138 ng·h/mL,15 nM,278 ± 104 ng·h/mL,13%,13 ± 5%,–,–,–,–,"CC1(NCC(=O)N2C[C@@H](F)C[C@H]2C#N)CCN(C(=O)CO)CC1.Cl [Compound X, (2S,4S)-4-fluoro-1-{[(1-glycoloyl-4-methylpiperidin-4-yl)amino]acetyl}pyrrolidine-2-carbonitrile monohydrochloride]"
–,–,–,–,–,–,90%,33%,–,–,COCC(=O)N1CCC(NCC(=O)N2CCC[C@H]2C#N)CC1 [Compound Y]
77%,43 ng·h/mL,15 nM,–,–,–,95%,84%,about fourfold,not detected,"CC(=O)OCC(=O)N1CCC(C)(NCC(=O)N2C[C@@H](F)C[C@H]2C#N)CC1 [Example 1, 2-[4-({2-[(2S,4S)-2-cyano-4-fluoropyrrolidin-1-yl]-2-oxoethyl}amino)-4-methylpiperdin-1-yl]-2-oxoethyl acetate monofumarate]"
